Assay results as given in ChEMBL document CHEMBL4680133, “Novel nitroimidazole derivatives evaluated for their trypanocidal, cytotoxic, and genotoxic activities” (Eur J Med Chem, 2020).

Legend:
Trypanosoma cruzi [1] = experiment: Antitrypanosomal activity against bloodstream form of Trypanosoma cruzi Y trypomastigotes infected in African green monkey Vero cells assessed as increase in parasite lysis measured after 24 hrs by Neubauer chamber method; assay type: functional, organism-based
[2] = Selectivity index, ratio of GI50 for mouse RAW264.7 cells assessed as reduction in cell viability measured after 24 hrs by WST1 assay to IC50 for antitrypanosomal activity against Trypanosoma cruzi Y axenic amastigotes infected in African green monkey Vero cells; assay type: toxicity; conditions: read-out: Selectivity Index
[3] = Selectivity index, ratio of GI50 for human HepG2 cells assessed as reduction in cell viability measured after 24 hrs by WST1 assay to IC50 for antitrypanosomal activity against bloodstream form of Trypanosoma cruzi Y trypomastigotes infected in African green monkey Vero cells; assay type: toxicity; conditions: read-out: Selectivity Index
[4] = Cytotoxicity against human HepG2 cells assessed as reduction in cell viability measured after 24 hrs by WST1 assay; assay type: cell-based
[5] = Selectivity index, ratio of GI50 for mouse RAW264.7 cells assessed as reduction in cell viability measured after 24 hrs by WST1 assay to IC50 for antitrypanosomal activity against bloodstream form of Trypanosoma cruzi Y trypomastigotes infected in African green monkey Vero cells; assay type: toxicity; conditions: read-out: Selectivity Index
Trypanosoma cruzi [6] = experiment: Antitrypanosomal activity against Trypanosoma cruzi Y axenic amastigotes infected in African green monkey Vero cells after 24 hrs by MTT assay; assay type: functional, organism-based
[7] = Cytotoxicity against mouse RAW264.7 cells assessed as reduction in cell viability measured after 24 hrs by WST1 assay; assay type: cell-based
[8] = Selectivity index, ratio of GI50 for human HepG2 cells assessed as reduction in cell viability measured after 24 hrs by WST1 assay to IC50 for antitrypanosomal activity against Trypanosoma cruzi Y axenic amastigotes infected in African green monkey Vero cells; assay type: toxicity; conditions: read-out: Selectivity Index

SMILES: COC(=O)c1cn(-c2c([N+](=O)[O-])ncn2C)nn1
- IC50 (Trypanosoma cruzi [1]): 31.3 µM

SMILES: O=C(Cn1ccnc1[N+](=O)[O-])NCc1ccccc1 [BENZNIDAZOLE]
- selectivity ratio at 24 h [2]: > 57
- selectivity ratio at 24 h [3]: > 56
- IC50 (Trypanosoma cruzi [1]): 8.8 µM
- GI50 at 24 h [4]: > 500 µM
- selectivity ratio at 24 h [5]: > 56
- IC50 (Trypanosoma cruzi [6]): 8.7 µM
- GI50 at 24 h [7]: > 500 µM
- selectivity ratio at 24 h [8]: > 57

SMILES: Cn1cnc([N+](=O)[O-])c1-n1cc(-c2ccccc2)nn1
- IC50 (Trypanosoma cruzi [1]): 25.2 µM

SMILES: Cn1cnc([N+](=O)[O-])c1-n1cc(C2=CCCCC2)nn1
- IC50 (Trypanosoma cruzi [1]): 41.7 µM

SMILES: Cn1cnc([N+](=O)[O-])c1-n1cc(-c2cccc(N)c2)nn1
- IC50 (Trypanosoma cruzi [1]): 41.2 µM
